Here are results for 6 compounds from ChEMBL document CHEMBL4400520, “Benzofuran-isatin-imine hybrids tethered via different length alkyl linkers: Design, synthesis and in vitro evaluation of anti-tubercular and anti-bacterial activities as well as cytotoxicity” (Eur J Med Chem, 2019).

≈ marks a conversion by molar mass, not a printed value.

The term MIC denotes the lowest concentration found to suppress growth. As a reminder, the CC50 is the concentration that lowers cell viability or growth by half. A word on the Cmax: it is the highest concentration seen after dosing. For orientation: half-life means the time needed for the level to fall by half in the phase considered. By Tmax is commonly meant the time at which the peak concentration occurs. By AUC(0-inf) is commonly meant total exposure, with the tail of the curve extrapolated. One may read the MIC90 as the lowest concentration that inhibits either 90% of growth or 90% of the strains tested, depending on the study.

Data set [1] concerns Mycobacterium tuberculosis. The data set can be described thus: Antitubercular activity against Mycobacterium tuberculosis H37Rv. The format is functional.
A short description of data set [2]: (§1) Cytotoxicity against African green monkey Vero cells assessed as reduction in cell viability after 72 hrs by MTT assay. The format is cell-based. The conditions noted are these: chlorocebus sabaeus, Vero cells. In general terms: Tetrazolium dyes change colour on reduction, which living cells bring about.
Data set [3] is described as follows: Selectivity index, ratio of CC50 for African green monkey Vero cells to MIC for Mycobacterium tuberculosis H37Rv. The format is toxicity. Conditions: read-out: Selectivity Index.
Data set [4] can be described thus: Cmax in ICR mouse at 25 mg/kg, po. The format is ADME, organism-based. Further details: dose 25 mg/kg, route oral. The conditions noted are these: in vivo.
The nature of data set [5]: Half life in ICR mouse at 25 mg/kg, po. The conditions noted are these: in vivo. The format is ADME, organism-based.
Data set [6] is described as follows: Tmax in ICR mouse at 25 mg/kg, po. The format is ADME, organism-based. Conditions: in vivo.
Data set [7] can be described thus: AUC (0 to infinity) in ICR mouse at 25 mg/kg, po. Conditions: in vivo. The format is ADME, organism-based. Details: dose 25 mg/kg, time infinity, route oral.
Data set [8] in a line: Metabolic stability in mouse assessed as half life. The format is ADME.
The subject of data set [9] is Vero. Described as §1. The format is cell-based. Conditions: chlorocebus sabaeus, vero, 72 h.
The test system of data set [10] is Staphylococcus epidermidis. Kind of data set: Antibacterial activity against methicillin-sensitive Staphylococcus epidermidis. The format is functional.
Data set [11] deals with Staphylococcus epidermidis. The data set can be described thus: Antibacterial activity against methicillin-resistant Staphylococcus epidermidis. The format is functional.
In data set [12] the test system is Staphylococcus aureus. Kind of data set: Antibacterial activity against methicillin-sensitive Staphylococcus aureus. The format is functional.
Data set [13] concerns Staphylococcus aureus. The data set can be described thus: Antibacterial activity against methicillin-resistant Staphylococcus aureus. The format is functional.
In data set [14] the test system is Enterococcus faecalis. The data set can be described thus: Antibacterial activity against Enterococcus faecalis. The format is functional.
For data set [15], the system named is Enterococcus faecium. The data set can be described thus: Antibacterial activity against Enterococcus faecium. The format is functional.
Data set [16] deals with Escherichia coli. Kind of data set: Antibacterial activity against Escherichia coli. The format is functional.
Data set [17] concerns Klebsiella pneumoniae. Kind of data set: Antibacterial activity against Klebsiella pneumoniae. The format is functional.
In data set [18] the test system is Pseudomonas aeruginosa. The data set can be described thus: Antibacterial activity against Pseudomonas aeruginosa ATCC 27853. The format is functional.
Data set [19] deals with Acinetobacter calcoaceticus. The data set can be described thus: Antibacterial activity against Acinetobacter calcoaceticus. The format is functional.
Data set [20] deals with Enterobacter cloacae. Kind of data set: Antibacterial activity against Enterobacter cloacae. The format is functional.
Data set [21] relates to Klebsiella aerogenes. Kind of data set: Antibacterial activity against Enterobacter aerogenes. The format is functional.
Data set [22] concerns Proteus mirabilis. Kind of data set: Antibacterial activity against Proteus mirabilis. The format is functional.
The test system of data set [23] is Citrobacter freundii. The data set can be described thus: Antibacterial activity against Citrobacter freundii. The format is functional.

`CNC(=O)c1c(-c2ccc(O)cc2)oc2ccc(O)c(CN3CCCCC3)c12`: in data set [1], the MIC was under 0.016 µg/mL. For the same compound, the half-maximal cytotoxic concentration (CC50) at 72 h in data set [2] is over 1020 µg/mL. Further, the selectivity ratio in [3] was over 64000. The same compound gave a maximum concentration (Cmax) in [4] of 5060 ng/mL. The half-life in data set [5] is 9.88 h; in data set [8], over 1 h. In [6], the Tmax was 3.46 h. The same compound gave an AUC(0-inf) in data set [7] of 39300 ng·h/mL.
As for `CCO/N=C1\C(=O)N(CCCCOc2ccc3oc(-c4ccc(OC)cc4)c(C(=O)OCC)c3c2)c2ccc(F)cc21`, it took 0.156 µg/mL (≈ 0.271 µM) to inhibit growth in [1] (MIC). The cytotoxic concentration (CC50) in data set [9] was found to be 32 µg/mL (≈ 55.7 µM). In addition, in data set [3], the selectivity ratio is 410. Further, the MIC90 amounted to 1 µg/mL (≈ 1.74 µM) in data set [10]; 16 µg/mL (≈ 27.8 µM) in data set [11]; 8 µg/mL (≈ 13.9 µM) in data set [12]; 4 µg/mL (≈ 6.96 µM) in [13]; 4 µg/mL (≈ 6.96 µM) in data set [14]; 32 µg/mL (≈ 55.7 µM) in data set [15]. Also, the MIC90 in [16] is 0.5 µg/mL (≈ 0.87 µM); in data set [17], 2 µg/mL (≈ 3.48 µM); in data set [18], 8 µg/mL (≈ 13.9 µM); in data set [19], 8 µg/mL (≈ 13.9 µM); in data set [20], 0.25 µg/mL (≈ 0.435 µM); in [21] it was 0.5 µg/mL (≈ 0.87 µM). Moreover, the MIC90 was 0.25 µg/mL (≈ 0.435 µM) in [22] and 0.5 µg/mL (≈ 0.87 µM) in data set [23].
In the case of `CCOC(=O)c1c(-c2ccccc2)oc2ccc(OCCCN3C(=O)/C(=N\OC)c4ccccc43)cc12`, the MIC in data set [1] was under 0.016 µg/mL. For the same compound, the 50% cytotoxic concentration (CC50) at 72 h in [2] is 64 µg/mL (≈ 128 µM). For the same compound, the selectivity ratio in data set [3] is over 2000. The MIC90 in data set [10] was 0.125 µg/mL (≈ 0.251 µM); in [11], 0.5 µg/mL (≈ 1 µM); in data set [12], 8 µg/mL (≈ 16 µM); in [13] it was 2 µg/mL (≈ 4.01 µM); in [14], 1 µg/mL (≈ 2.01 µM); in [15], 8 µg/mL (≈ 16 µM). For the same compound, the MIC90 in data set [16] was 0.25 µg/mL (≈ 0.501 µM); in data set [17] it was 0.5 µg/mL (≈ 1 µM); in data set [18], 1 µg/mL (≈ 2.01 µM); in data set [19], 1 µg/mL (≈ 2.01 µM); in data set [20], 2 µg/mL (≈ 4.01 µM); in data set [21], 0.25 µg/mL (≈ 0.501 µM). Further, the MIC90 in [22] and in data set [23] was 0.5 µg/mL (≈ 1 µM) each time.
`CCOC(=O)c1c(-c2ccccc2)oc2ccc(OCCCCN3C(=O)/C(=N\OC)c4cc(F)ccc43)cc12`: the minimum inhibitory concentration (MIC) in [1] is 0.062 µg/mL (≈ 0.117 µM). In [9], the CC50 came out at 64 µg/mL (≈ 121 µM). Moreover, the selectivity ratio in data set [3] is 516. Also, the MIC90 in data set [10] was determined as 0.25 µg/mL (≈ 0.471 µM); in data set [11], 1 µg/mL (≈ 1.88 µM); in [12], 1 µg/mL (≈ 1.88 µM); in [13], 2 µg/mL (≈ 3.77 µM); in data set [14], 2 µg/mL (≈ 3.77 µM); in data set [15], 8 µg/mL (≈ 15.1 µM). The MIC90 in data set [16] was 0.125 µg/mL (≈ 0.236 µM); in data set [17] it was 0.25 µg/mL (≈ 0.471 µM); in data set [18] it was 0.5 µg/mL (≈ 0.942 µM); in data set [19], 1 µg/mL (≈ 1.88 µM); in data set [20], 1 µg/mL (≈ 1.88 µM); in data set [21], 0.125 µg/mL (≈ 0.236 µM). Moreover, the MIC90 in [22] and in [23] was 0.25 µg/mL (≈ 0.471 µM) throughout.
The compound `CCOC(=O)c1c(-c2ccc(OC)cc2)oc2ccc(OCCCCCCN3C(=O)/C(=N\OC)c4cc(F)ccc43)cc12` showed an MIC in data set [1] of under 0.016 µg/mL. Also, in data set [2], the half-maximal cytotoxic concentration (CC50) at 72 h was determined as 16 µg/mL (≈ 27.2 µM). Besides, the selectivity ratio in data set [3] was over 1000. Also, the MIC90 in [10] was 0.5 µg/mL (≈ 0.849 µM); in data set [11], 16 µg/mL (≈ 27.2 µM); in data set [12], 4 µg/mL (≈ 6.8 µM); in data set [13], 4 µg/mL (≈ 6.8 µM); in data set [14], 2 µg/mL (≈ 3.4 µM); in [15], 16 µg/mL (≈ 27.2 µM). In addition, the MIC90 was 0.25 µg/mL (≈ 0.425 µM) in data set [16]; 2 µg/mL (≈ 3.4 µM) in data set [17]; 8 µg/mL (≈ 13.6 µM) in data set [18]; 4 µg/mL (≈ 6.8 µM) in data set [19]; 0.5 µg/mL (≈ 0.849 µM) in [20]; 0.5 µg/mL (≈ 0.849 µM) in data set [21]. The figures for the MIC90 in [22] and in [23] were 0.125 µg/mL (≈ 0.212 µM) and 0.5 µg/mL (≈ 0.849 µM), respectively.
Regarding `O=C(O)c1cn(C2CC2)c2cc(N3CCNCC3)c(F)cc2c1=O` [CIPROFLOXACIN], the MIC in data set [1] was determined as 0.291 µg/mL (≈ 0.878 µM). Further, the CC50 at 72 h in data set [2] was determined as 512 µg/mL (≈ 1550 µM). In addition, the MIC90 in data set [10] turned out to be 0.125 µg/mL (≈ 0.377 µM); in data set [11], 4 µg/mL (≈ 12.1 µM); in [12], 0.25 µg/mL (≈ 0.754 µM); in data set [13], 0.25 µg/mL (≈ 0.754 µM); in data set [14] it was 0.5 µg/mL (≈ 1.51 µM); in data set [15], 8 µg/mL (≈ 24.1 µM). The MIC90 in [16] is 0.06 µg/mL (≈ 0.181 µM); in data set [17], 0.5 µg/mL (≈ 1.51 µM); in data set [18] it was 0.25 µg/mL (≈ 0.754 µM); in data set [19] it was 0.5 µg/mL (≈ 1.51 µM); in data set [21], 0.06 µg/mL (≈ 0.181 µM); in [22] it was at most 0.03 µg/mL. In data set [23], this compound had an MIC90 of 0.03 µg/mL (≈ 0.0905 µM). In data set [4], this compound returned a Cmax of 3130 ng/mL. Also, in data set [6], the Tmax is 1.8 h. The same compound registered an AUC(0-inf) in data set [7] of 17800 ng·h/mL.
